One data set concerns AMPKα. Nature of the data set: Measurement of AMPK activation effect (AMPKα Thr172 phosphorylation immunoassay) in MCF7 cells. It is filed as cell-based, human. The following applies: 24 hours; for AMPK activation effect at 10 μM (%) / AMPK activation effect at 50 μM (%): relative to untreated cells; for AMPK activation effect AC150: concentration at which AMPK activation reached 150%. The protocol: MCF7 cells derived from human breast cancer cells (commercially available from the Korean Cell Line Bank) were used, and the AMPK activation effect of the biguanide derivative was confirmed using an AMPKα immunoassay kit (Invitrogen, Catalog No. KHO0651).
MCF7 cells were cultured in a DMEM medium supplemented with 10% fetal bovine serum. Thereafter, the cultured MCF7 cells were put into a 6-well plate with approximately 5×10^5 cells per well and cultured in an incubator supplied with 5% CO2. Culture media were treated with the derivatives synthesized in the examples at contents of 5, 10 and 50 μM, and then cultured for 24 hours. Metformin hydrochloride was used as the control, and the culture media were treated with 0.05, 0.5, 1, 2, 5 and 10 mM metformin hydrochloride, and then tested in the same manner as described in the derivatives synthesized in the examples. Subsequently, the cells were lysed according to a method presented in the operation manual of the AMPKα immunoassay kit, and 20 μg of a cell lysate was then yielded through protein assay. Thereafter, the AMPK activation effect was obtained by determining the degree of phosphorylation of 172nd threonine residue (Thr172) of the AMPKα from the cell lysate according to the method presented in the operation manual of the AMPKα immunoassay kit. […] A curve graph showing AMPK activation according to the concentration of the treated compounds was plotted based on the obtained AMPKα activation results, the concentration (activation concentration 150, AC150) value of the compound whose AMPK activation reached 150% was calculated using a GraphPad Prism 5.0 program, and the degrees of AMPK activation were obtained when concentrations of the treated biguanide derivatives were 10 μM and 50 μM and the metformin hydrochloride was 50 μM

A further data set deals with HCT116 cells. Nature of the data set: Measurement of effect of inhibiting cancer cell proliferation (MTT). Format: cell-based, human. To be noted: Homo sapiens; for inhibition at 100 µM: HCT-116, 100 μM, 48 hours, read-out: Cell Growth Inhibition (%) at 100 μM; for GI50: HCT-116, 48 h. The source says: HCT116 cells derived from human colorectal cancer (commercially available from the Korean Cell Line Bank) were used, and the effect of inhibiting cancer cell proliferation of the biguanide derivative was confirmed by measuring the concentration value (cell growth inhibition concentration, GIC50) at which cell growth was inhibited by 50% using a 3-(4,5-dimethylthiazol-2-yl)-2,5-diphenyltetrazolium bromide (MTT) reagent.
First, HCT116 cells were put on a 96-well plate and cultured in a DMEM medium containing 10% fetal bovine serum for 16 hours so that the cellcount in each well was approximately 5,000. Subsequently, to obtain the GIC50 value of each compound, culture media were treated with 100 μM, 25 μM, 6.25 μM, 1.56 μM or 0.39 μM of the compound, and then cultured for 48 hours. Metformin hydrochloride was used as the control, and the culture media were treated with 25, 12.5, 2.5, 0.5, 0.1 mM metformin hydrochloride, and then tested in the same manner as described in the derivatives synthesized in the examples. In order to determine whether the cells survived after treatment with the compounds, MTT was added to the culture media which were then cultured for another 3 hours. Formed formazane crystals were dissolved using dimethyl sulfoxide (DMSO), and the absorbance of the resulting solution was measured at 560 nm. After the 48-hour culture, […] was indicated as cell viability (%) according to each treated concentration. A cell viability curve graph was plotted and the concentration (GIC50) value of the compound at which the growth was inhibited by 50% was calculated to confirm the inhibition effect of cancer cell proliferation. Also, the cell growth viability (%) when the concentration of the treated biguanide derivative and the metformin hydrochloride as the control were 100 μM was shown.

Turning to `Cl.N=C(NC(=N)N1CCCC1)Nc1ccc(Cl)cc1` [Example 17, N1-pyrrolidine-N5-(4-chloro)phenyl biguanide hydrochloride], the melting point lay in the range of 260 to 261 °C. Moreover, in the data set on AMPKα, the “AMPK activation effect at 10 μM (%)” value came to 167%, the “AMPK activation effect at 50 μM (%)” value is 512% and the “AMPK activation effect AC150” value was determined as 8.4 µM. In addition, in the data set on HCT116 cells, the inhibition at 100 µM stood at 97.4% and the 50% growth inhibitory concentration (GI50) came out at 48.2 µM.

The molecule `Cl.N=C(NC(=N)N1CCCCC1)Nc1ccc(Cl)cc1` [Example 18, N1-piperidine-N5-(4-chloro)phenyl biguanide hydrochloride] came in with a melting point of 275 to 276 °C. Moreover, in the data set on AMPKα, the “AMPK activation effect at 10 μM (%)” value amounted to 281% and the “AMPK activation effect AC150” value is 3.4 µM. In addition, in the data set with HCT116 cells, the inhibition at 100 µM stood at 97.7% and the GI50 came out at 17 µM.

On to `Cl.N=C(NC(=N)N1CCCC1)Nc1cccc(Cl)c1` [Example 19, N1-pyrrolidine-N5-(3-chloro)phenyl biguanide hydrochloride], for which the melting point is 170 to 172 °C. Besides, in the data set on AMPKα, the “AMPK activation effect at 10 μM (%)” value is 176%, the “AMPK activation effect at 50 μM (%)” value was found to be 586% and the “AMPK activation effect AC150” value turned out to be 4.4 µM. Also, in the data set on HCT116 cells, the inhibition at 100 µM was 74% and growth was halved (GI50) at 55.9 µM.

As to `Cl.N=C(NC(=N)N1CCOCC1)Nc1cccc(Br)c1` [Example 22, N1-morpholine-N5-(3-bromo)phenyl biguanide hydrochloride], the melting point lay within 264 to 265 °C. Moreover, in the data set with AMPKα, the “AMPK activation effect at 10 μM (%)” value amounted to 127%, the “AMPK activation effect at 50 μM (%)” value is on record as 119% and the “AMPK activation effect AC150” value turned out to be 2.3 µM. Moreover, in the data set on HCT116 cells, the inhibition at 100 µM was 44.5% and the GI50 was over 100 µM.

In turn, `Cl.N=C(NC(=N)N1CCCC1)Nc1cccc(C(F)(F)F)c1` [Example 23, N1-pyrrolidine-N5-(3-trifluoromethyl)phenyl biguanide hydrochloride] returned a melting point of 286 to 287 °C. Further, in the data set on AMPKα, the “AMPK activation effect at 10 μM (%)” value is recorded as 199%, the “AMPK activation effect at 50 μM (%)” value was 578% and the “AMPK activation effect AC150” value is 4.4 µM. In the data set with HCT116 cells, the inhibition at 100 µM worked out at 97.6% and the GI50 was found to be 38.9 µM.

In turn, `Cl.N=C(NC(=N)N1CCCCC1)Nc1cccc(C(F)(F)F)c1` [Example 24, N1-piperidine-N5-(3-trifluoromethyl)phenyl biguanide hydrochloride] came in with a melting point of 264 to 265 °C. Besides, in the data set with AMPKα, the “AMPK activation effect at 10 μM (%)” value came out at 388% and the “AMPK activation effect AC150” value came to 2.6 µM. In the data set with HCT116 cells, the inhibition at 100 µM was 97.6% and the GI50 came out at 6.9 µM.

Take `Cl.N=C(NC(=N)N1CCC1)Nc1ccc(C(F)(F)F)cc1` [Example 25, N1-azetidine-N5-(4-trifluoromethyl)phenyl biguanide hydrochloride]: the melting point was in the range of 258 to 259 °C. For the same molecule, in the data set with AMPKα, the “AMPK activation effect at 10 μM (%)” value turned out to be 99%, the “AMPK activation effect at 50 μM (%)” value is 156% and the “AMPK activation effect AC150” value was 46.6 µM. In addition, in the data set on HCT116 cells, the inhibition at 100 µM is 96.3% and halving of growth (GI50) required 27.6 µM.

Regarding `Cl.N=C(NC(=N)N1CCCC1)Nc1cccc(OC(F)(F)F)c1` [Example 28, N1-pyrrolidine-N5-(3-trifluoromethoxy)phenyl biguanide hydrochloride], the melting point is 261 to 262 °C. Also, in the data set on AMPKα, the “AMPK activation effect at 10 μM (%)” value was 158%, the “AMPK activation effect at 50 μM (%)” value is 424% and the “AMPK activation effect AC150” value turned out to be 6.9 µM. Further, in the data set on HCT116 cells, the inhibition at 100 µM stood at 97.6% and the GI50 stood at 19 µM.

As to `Cl.N=C(NC(=N)N1CCCCC1)Nc1cccc(OC(F)(F)F)c1` [Example 29, N1-piperidine-N5-(3-trifluoromethoxy)phenyl biguanide hydrochloride], the melting point is 264 to 266 °C. Moreover, in the data set with AMPKα, the “AMPK activation effect at 10 μM (%)” value was 400% and the “AMPK activation effect AC150” value turned out to be 1.1 µM. For the same molecule, in the data set with HCT116 cells, the inhibition at 100 µM was found to be 98% and the GI50 is 5.9 µM.

Take `Cl.N=C(NC(=N)N1CCC1)Nc1ccc(OC(F)(F)F)cc1` [Example 31, N1-azetidine-N5-(4-trifluoromethoxy)phenyl biguanide hydrochloride]: the melting point was in the range of 257 to 259 °C. Besides, in the data set on AMPKα, the “AMPK activation effect at 10 μM (%)” value turned out to be 145%, the “AMPK activation effect at 50 μM (%)” value is on record as 232% and the “AMPK activation effect AC150” value stood at 15.3 µM. Moreover, in the data set on HCT116 cells, the inhibition at 100 µM amounted to 96.5% and the GI50 is 22.9 µM.

In the case of `Cl.N=C(NC(=N)N1CCOCC1)Nc1ccc(OC(F)(F)F)cc1` [Example 34, N1-morpholine-N5-(4-trifluoromethoxy)phenyl biguanide hydrochloride], the melting point fell in the range of 263 to 264 °C. In the data set with AMPKα, the “AMPK activation effect at 10 μM (%)” value is 121%, the “AMPK activation effect at 50 μM (%)” value is listed as 168% and the “AMPK activation effect AC150” value came out at 33.7 µM. Also, in the data set with HCT116 cells, the inhibition at 100 µM amounted to 98% and the GI50 is 47.3 µM.

Molecule `CN1CCN(C(=N)NC(=N)Nc2ccc(OC(F)(F)F)cc2)CC1.Cl` [Example 35, N1-(4-methyl)piperazine-N5-(4-trifluoromethoxy)phenyl biguanide hydrochloride] returned a melting point of 258 to 259 °C. Further, in the data set on AMPKα, the “AMPK activation effect at 10 μM (%)” value amounted to 207%, the “AMPK activation effect at 50 μM (%)” value stood at 542% and the “AMPK activation effect AC150” value was determined as 5.0 µM. In the data set on HCT116 cells, the inhibition at 100 µM turned out to be 76.5% and the GI50 was 46.7 µM.

As for `Cl.N=C(NC(=N)N1CCCCC1)Nc1cccc(N)c1` [Example 36, N1-piperidine-N5-(3-amino)phenyl biguanide hydrochloride], the melting point lay within 220 to 222 °C. In the data set on AMPKα, the “AMPK activation effect at 10 μM (%)” value was determined as 62%, the “AMPK activation effect at 50 μM (%)” value stood at 175% and the “AMPK activation effect AC150” value stood at 36.8 µM. In the data set on HCT116 cells, the inhibition at 100 µM came out at 43.6% and the GI50 is over 100 µM.

Molecule `CN(C)c1ccc(NC(=N)NC(=N)N2CCCCC2)cc1.Cl` [Example 37, N1-piperidine-N5-(4-dimethylamino)phenyl biguanide hydrochloride] yielded a melting point of 253 to 255 °C. Besides, in the data set on AMPKα, the “AMPK activation effect at 10 μM (%)” value amounted to 123%, the “AMPK activation effect at 50 μM (%)” value is listed as 286% and the “AMPK activation effect AC150” value turned out to be 13.9 µM. In addition, in the data set on HCT116 cells, the inhibition at 100 µM worked out at 32.2% and the GI50 was over 100 µM.

The molecule `CC(=O)Nc1ccc(NC(=N)NC(=N)N2CCCCC2)cc1.Cl` [Example 38, N1-piperidine-N5-(4-acetamide)phenyl biguanide hydrochloride] showed a melting point of 258 to 260 °C. In the data set with AMPKα, the “AMPK activation effect at 10 μM (%)” value was determined as 94%, the “AMPK activation effect at 50 μM (%)” value was determined as 144% and the “AMPK activation effect AC150” value is over 50 µM. In addition, in the data set on HCT116 cells, the inhibition at 100 µM stood at 0% and the concentration for 50% growth inhibition (GI50) is over 100 µM.

`CC(=O)Nc1cccc(NC(=N)NC(=N)N2CCCCC2)c1.Cl` [Example 39, N1-piperidine-N5-(3-acetamide)phenyl biguanide hydrochloride]: the melting point was in the range of 265 to 267 °C. Further, in the data set on AMPKα, the “AMPK activation effect at 10 μM (%)” value came to 100%, the “AMPK activation effect at 50 μM (%)” value is listed as 145% and the “AMPK activation effect AC150” value was over 50 µM. Also, in the data set on HCT116 cells, the inhibition at 100 µM was 25.5% and the GI50 is over 100 µM.

One may read the inhibition as the percentage by which the read-out fell short of the control. What is called GI50 is the concentration giving 50% growth inhibition. Low values mean more potent growth inhibition, high ones less potent growth inhibition. What is called melting point is the temperature of the solid-liquid transition.

For the origin of these results see US9540325B2, “N1-cyclic amine-N5-substituted phenyl biguanide derivatives, methods of preparing the same and pharmaceutical composition comprising the same” (Immunomet Therapeutics, Inc., priority 2011, dated 2017).
